Patent US20050227977A1, “Substituted 1,2,5,10-tetrahydropyridazino [4,5-b]quinoline-1,10-dione compounds and methods for the treatment of pain” (AstraZeneca AB, priority 1999, published 2005)

Molecular target: T1, NMDA receptor glycine site (Rattus norvegicus, UniProt P35439)
T1 construct: tissue Analytical Biological Services Inc; host or cells: rat brain membranes (cerebral cortex and hippocampus, male Sprague Dawley rats)
Assay: Test A: Inhibition of binding of [3H]-MDL105,519
Details: inhibition of 1.2 nM [3H]MDL105,519 binding to brain membranes; table does not say rat or human membranes
Text: Test A: Inhibition of Binding of [^3H]-MDL105,519:
Binding of compounds to the NMDA receptor glycine site may be assessed by measuring the ability of test compounds to inhibit the binding of tritiated MDL105,519 to brain membranes bearing the receptor.
Briefly, fresh brain tissue including cerebral cortex and hippocampus from male Sprague Dawley rats was homogenized in 0.32 M sucrose and centrifuged at low speed to separate cellular membranes from other cellular components. The membranes were then washed 3 times using deionized water, followed by treatment with 0.04% Triton X-100. Finally, membranes were washed six times in 50 mM Tris citrate buffer, pH 7.4, and frozen at −80° C. until use.
[^3H]MDL105,519 (72 Ci/mmol) was purchased from Amersham. Cold MDL105,519 was purchased from Sigma/RBI. […] On the day of the experiment, brain membranes were thawed at room temperature and suspended in 50 mM tris acetate buffer, pH 7.4 (“TAB”). Seventy-five micro grams per milliliter protein (by using the BioRad dye) were used for competition binding. The experiments were carried out using 96-well plates. […] Non specific binding was determined by using 100 μM of unlabeled MDL105,519. […] After incubation, unbound [^3H]MDL105,519 was removed by filtration onto GF/B Unifilter plates using a Packard harvester. Filters were washed four times with ice cold TAB (total of 1.2 mL buffer). The plates were dried overnight at room temperature and bound radioactivity was measured on a Packard TopCount after the addition of 45 μL per well of the MICROSCINT O.
Human Brain Membranes: Human brain membranes were obtained from Analytical Biological Services Inc., and assays were performed as described for rat membranes.
Data analysis: Data was analyzed using a Microsoft Excel spreadsheet and GraphPad Prizm software and potency of compounds is expressed as the Ki (nM).

COc1ccc(Cn2nc(O)c3[nH]c4cc(Cl)ccc4c(=O)c3c2=O)cc1OC(=O)N1CCOCC1 [Ex. 16, Morpholine-4-carboxylic acid 5-(7-chloro-4-hydroxy-1,10-dioxo-5,10-dihydro-1H-pyridazino[4,5-b]quinolin-2-ylmethyl)-2-methoxy-phenyl ester]
Ki: 86.6 nM

Cc1cc(Cn2nc(O)c3[nH]c4cc(Cl)ccc4c(=O)c3c2=O)ccc1OC(=O)N1CCOCC1 [Ex. 12, Morpholine-4-carboxylic acid 4-(7-chloro-4-hydroxy-1,10-dioxo-5,10-dihydro-1H-pyridazino[4,5-b]quinolin-2-ylmethyl)-2-methyl-phenyl ester]
Ki: 267 nM

Cc1cc(Cn2nc(O)c3[nH]c4cc(Cl)ccc4c(=O)c3c2=O)ccc1OC(=O)N(C)c1ccccc1 [Ex. 13, Methyl-phenyl-carbamic acid 4-(7-chloro-4-hydroxy-1,10-dioxo-5,10-dihydro-1H-pyridazino[4,5-b]quinolin-2-ylmethyl)-2-methyl-phenyl ester]
Ki: 59 nM

COc1ccc(Cn2nc(O)c3[nH]c4cc(Cl)ccc4c(=O)c3c2=O)cc1OC(=O)N(C)C [Ex. 14, Dimethyl-carbamic acid 5-(7-chloro-4-hydroxy-1,10-dioxo-5,10-dihydro-1H-pyridazino[4,5-b]quinolin-2-ylmethyl)-2-methoxy-phenyl ester]
Ki: 165 nM
